Assay results reported in US20260224714A1, “CYCLING LYSOSOMAL TARGETING ANTIBODY CONJUGATES” (Lycia Therapeutics, Inc., priority 2023, published 2026).

What was measured:
Assay type in all cases: cell-based
[1] = tested on: LysoLight-labelled human IgE; test: Lysosomal degradation of LysoLight-labelled IgE in HepG2 cells, live cell imaging (Example 7); settings: equimolar conjugate:LysoLight IgE, area under the curve of deep red fluorescence over three days, normalized to unconjugated parent protein
Procedure, shortened: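 Conjugate precomplexed 30 min at room temperature with equimolar LysoLight-labelled human IgE, added to Fc-receptor-blocked HepG2 cells at final 100–1.23 nM. Red fluorescence, released on lysosomal cathepsin cleavage, imaged hourly for 72 h starting 1 h post-addition; area under the fluorescence–time curve taken as total degradation.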

human IgE = test: Degradation of initial and subsequent dose of target in HepG2 cells (Example 12, Table 30); settings: normalized to unconjugated; for Normalized Fluorescence Post Wash Median Green: after wash, probe-conjugated IgE added for 4 hours, subsequent dose of target; for Normalized Fluorescence Precomplex Median Deep Red: precomplexed equimolar conjugate:IgE (cathepsin-cleavable quenched fluorescent probe) added for 2 hours, initial dose of target
Procedure, shortened: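 HepG2 cells exposed 2 h to conjugate precomplexed (30 min, 37 °C, equimolar) with 647-quenched-probe human IgE, acid/ice washed, then given 488-probe IgE without conjugate for 4 h. Median 647 (initial) and 488 (recycled) fluorescence by flow cytometry, normalised to unconjugated parent; mean of two wells.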

[2] = tested on: Alexa Fluor647 labelled human IgE; test: Uptake assay: internalization of Alexa Fluor 647 labelled IgE in ASGPR1/2 KO HepG2 cells (Example 6); settings: equimolar conjugate and AF647 IgE, normalized to unconjugated parent protein
Procedure, shortened: (§1)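 HepG2 cells (wild type or ASGPR1/2 KO) pre-blocked with Fc receptor blocker, then exposed 2 h to conjugate precomplexed equimolar with AF647-labelled human IgE (30 min, room temperature) at 300 nM to 1.23 nM final. Median cellular AF647 by flow cytometry, normalized to unconjugated parent protein.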

[3] = tested on: Alexa Fluor647 labelled human IgE; test: Uptake assay: internalization of Alexa Fluor 647 labelled IgE in wild type HepG2 cells (Example 6); settings: equimolar conjugate and AF647 IgE, 2 hours, median cellular AF647 intensity by flow cytometry, normalized to unconjugated parent protein
Procedure, shortened: as §1

recombinant IgE = test: Degradation of super-stoichiometric levels of target in HepG2 cells (Example 13, Table 31); settings: 1 nM conjugate and 25 nM IgE for three days, (A-B)/C IgE depleted relative to conjugate, average of two replicate wells
Procedure, shortened: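 HepG2 cells in EMEM/10% FBS were incubated with 1 nM conjugate plus 25 nM recombinant IgE for 72 h. IgE in medium at start and end quantified by MSD/ELISA-type assay; value is molar equivalents IgE depleted per conjugate, (initial − day-3 IgE)/conjugate concentration, mean of two wells.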

HepG2 cells = test: Externalization of conjugates from a cell following internalization (cycling), high-throughput format (Example 11); settings: 50 nM conjugate 1 hour, stringent washes, Alexa Fluor 647-labelled a-human IgG 1 hour, FACS, normalized to unconjugated parent protein, average of two replicate wells
Procedure, shortened: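 25,000 HepG2 cells incubated with conjugate for 1 h at indicated concentrations, then chilled and washed (DPBS, pH 5.2 acetate, pH 2.5 EBSS) to strip surface conjugate. Recycled conjugate captured by 1 μg/ml AF647 anti-human IgG in 37 °C EMEM for 1 h; median AF647 by flow cytometry, mean of two wells.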

SMILES	Normalized Fluorescence 3.7 nM [1]	Normalized Fluorescence 100 nM [1]	Normalized Fluorescence Post Wash Median Green (human IgE)	Normalized Fluorescence Precomplex Median Deep Red (human IgE)	Normalized Fluorescence 100 nM ASGPR KO [2]	Normalized Fluorescence 3.7 nM WT [3]	Normalized Fluorescence 100 nM WT [3]	Average Degradation (Molar equivalents) (recombinant IgE)	Normalized Fluorescence (HepG2 cells)
CC(=O)N[C@@H]1[C@@H](O)[C@@H](O)[C@@H](CO)O[C@@H]1CCCOCCOCCNC(=O)NCCOCCOCCOCCOCCOCCNC(=O)c1ccc(N2C(=O)C=CC2=O)cc1 [Compound 2319-C, N-(29-((2R,3R,4R,5R,6R)-3-acetamido-4,5-dihydroxy-6-(hydroxymethyl)tetrahydro-2H-pyran-2-yl)-19-oxo-3,6,9,12,15,23,26-heptaoxa-18,20-diazanonacosyl)-4-(2,5-dioxo-2,5-dihydro-1H-pyrrol-1-yl)benzamide]	1.1	1.0	1.1	1.2	1.4	2.3	16.0	2.1 Molar equivalents	5.0
CC(=O)N[C@@H]1[C@@H](O)[C@@H](O)[C@@H](CO)O[C@@H]1CCCOCCOCCNC(=O)NCCCC(C)(CCCNC(=O)NCCOCCOCCC[C@H]1O[C@H](CO)[C@H](O)[C@H](O)[C@H]1NC(C)=O)NC(=O)NCCOCCOCCOCCNC(=O)CBr (stereo partly drawn) [Compound 2320]	6.4	2.7	2.7	3.2	1.1	37.7	224.4	0.5 Molar equivalents	24.1
CC(=O)N[C@@H]1[C@@H](O)[C@@H](O)[C@@H](CO)O[C@@H]1CCCOCCOCCNC(=O)NCCCC(CCCNC(=O)NCCOCCOCCC[C@H]1O[C@H](CO)[C@H](O)[C@H](O)[C@H]1NC(C)=O)(CCCNC(=O)NCCOCCOCCC[C@H]1O[C@H](CO)[C@H](O)[C@H](O)[C@H]1NC(C)=O)NC(=O)NCCOCCOCCOCCNC(=O)CBr [Compound 2321]	13.2	4.1	3.7	4.0	1.1	80.7	320.7	2.4 Molar equivalents	49.3
CC(=O)N[C@@H]1[C@@H](O)[C@@H](O)[C@@H](CO)O[C@@H]1CCCOCCOCCNC(=O)NCCCC(CCCNC(=O)NCCOCCOCCC[C@H]1O[C@H](CO)[C@H](O)[C@H](O)[C@H]1NC(C)=O)(CCCNC(=O)NCCOCCOCCC[C@H]1O[C@H](CO)[C@H](O)[C@H](O)[C@H]1NC(C)=O)NC(=O)NCCOCCOCCOCCN(C)C(=O)c1ccc(N2C(=O)C=CC2=O)cc1 [Compound 2322]	7.8	3.5	3.3	3.5	1.2	68.5	214.4	5.2 Molar equivalents	46.8
O=C(CCOCCOCCOCCNS(=O)(=O)c1ccc(N2C(=O)C=CC2=O)cc1)NC(CCCNC(=O)NCCOCCOCCOC[C@H]1CN([C@H]2CO[C@H](CO)[C@H](O)[C@@H]2O)C(=O)O1)(CCCNC(=O)NCCOCCOCCOC[C@H]1CN([C@H]2CO[C@H](CO)[C@H](O)[C@@H]2O)C(=O)O1)CCCNC(=O)NCCOCCOCCOC[C@H]1CN([C@H]2CO[C@H](CO)[C@H](O)[C@@H]2O)C(=O)O1 [Compound 2324]	5.8	2.6	2.9	3.2	1.2	39.2	207.4	5.2 Molar equivalents	32.2
CC(=O)N[C@@H]1[C@@H](O)[C@@H](O)[C@@H](CO)O[C@@H]1c1cc(COCCOCCNC(=O)NCCCC(CCCNC(=O)NCCOCCOCc2cc([C@H]3O[C@H](CO)[C@H](O)[C@H](O)[C@H]3NC(C)=O)on2)(CCCNC(=O)NCCOCCOCc2cc([C@H]3O[C@H](CO)[C@H](O)[C@H](O)[C@H]3NC(C)=O)on2)NC(=O)CCOCCOCCOCCNS(=O)(=O)c2ccc(N3C(=O)C=CC3=O)cc2)no1 [Compound 2325]	15.8	3.5	3.6	3.9	1.2	87.8	270.0	6.9 Molar equivalents	54.2
CCC[C@H]1O[C@H](COC)[C@H](O)[C@H](O)[C@H]1Nc1nccc(OCCOCCOCCNC(=O)NCCCC(CCCNC(=O)NCCOCCOCCOc2ccnc(N[C@@H]3[C@@H](O)[C@@H](O)[C@@H](COC)O[C@@H]3CCC)n2)(CCCNC(=O)NCCOCCOCCOc2ccnc(N[C@@H]3[C@@H](O)[C@@H](O)[C@@H](COC)O[C@@H]3CCC)n2)NC(=O)CCOCCOCCOCCNS(=O)(=O)c2ccc(N3C(=O)C=CC3=O)cc2)n1 [Compound 2326]	17.2	3.7	4.1	4.1	1.1	89.7	287.9	9.0 Molar equivalents	57.7
O=C(CCOCCOCCOCCNS(=O)(=O)c1ccc(N2C(=O)C=CC2=O)cc1)NC(CCCNC(=O)NCCOCCOCCOCC(F)(F)c1cncc(N[C@H]2CO[C@H](CO)[C@H](O)[C@@H]2O)n1)(CCCNC(=O)NCCOCCOCCOCC(F)(F)c1cncc(N[C@H]2CO[C@H](CO)[C@H](O)[C@@H]2O)n1)CCCNC(=O)NCCOCCOCCOCC(F)(F)c1cncc(N[C@H]2CO[C@H](CO)[C@H](O)[C@@H]2O)n1 [Compound 2327]	24.0	2.7	4.6	3.7	1.0	133.1	268.8	9.2 Molar equivalents	71.2
O=C(CCOCCOCCOCCNS(=O)(=O)c1ccc(N2C(=O)C=CC2=O)cc1)NC(CCCNC(=O)NCCOCCOCCOCc1cn([C@H]2[C@H]3OC[C@](CO)(O3)[C@H](O)[C@@H]2O)nn1)(CCCNC(=O)NCCOCCOCCOCc1cn([C@H]2[C@H]3OC[C@](CO)(O3)[C@H](O)[C@@H]2O)nn1)CCCNC(=O)NCCOCCOCCOCc1cn([C@H]2[C@H]3OC[C@](CO)(O3)[C@H](O)[C@@H]2O)nn1 [Compound 2328]	4.4	2.5	1.8	2.4	1.1	29.7	146.5	−0.3 Molar equivalents	15.1
